Experimental data taken from patent publication US7851629B2, “Disubstituted phenylpiperidines as modulators of dopamine and serotonin neurotransmission” (NSAB, Filial af Neurosearch Sweden AB, Sverige, priority 2004, dated 2010).
Values joined by “and” are separate entries in the source; they are usually repeats but may differ in a detail not shown here. Equal values may be shown once. Where a name gives a salt, the structure may show the parent alone.

Columns and labels:
schizophrenic patients = conditions: selective sigma receptor antagonists; Borison et al 1991, Gewirtz et al 1994; cited from earlier work
[1] = test system: extracellular 5-HT, dopamine and norepinephrine in the cortex; experiment: Microdialysis in awake and freely moving rats, cortex monoamines; type: in vivo, rat; conditions: for levels of dopamine in the cortex / levels of norepinephrine in the cortex / 5-HT in the cortex: 50 μmol/kg s.c., pf. cortex; for levels of dopamine in the cortex / levels of norepinephrine in the cortex: FIG. 2-4; for 5-HT in the cortex: FIGS. 2-4
From the text: The microdialysis technique (Ungerstedt, Herrera-Marschitz et al. 1982) is a well established technique for measuring extracellular levels of neurotransmitters (Ungerstedt 1991). The microdialysis technique was used to measure the effect of drugs upon the monoamine transmitters. The appended graphs (FIGS. 1-4) show the effects of one established antidepressant (citalopram) upon 5-HT in the cortex, as well as for three compounds claimed in the present invention (Examples 3, 5, and 6).
Male Sprague-Dawley rats weighing 220-320 g were used throughout the experiments. Before the experiment the animals were group housed, five animals in each cage, with free access to water and food. The animals were housed at least one week after arrival prior to surgery and use in the experiments. Each rat was used only once for microdialysis.
We use a modified version (Waters, Lofberg et al. 1994) of the I-shaped probe (Santiago and Westerink 1990). The dialysis membrane we use is the AN69 polyacrylonitrile/sodium methalylsulfonate copolymer (HOSPITAL; o.d./i.d. 310/220 μm: Gambro, Lund, Sweden). In the dorsal striatum we use probes with an exposed length of 3 mm of dialysis membrane and in the prefrontal cortex the corresponding length is 2.5 mm. The rats were operated under isoflurane inhalation anesthesia while mounted into a Kopf stereotaxic instrument. Coordinates were calculated relative to bregma; dorsal striatum AP+1, ML±2.6, DV−6.3; Pf cortex, AP+3.2, 8° ML±1.2, DV−4.0 according to (Paxinos and Watson 1986). The dialysis probe was positioned in a burr hole under stereotaxic guidance and cemented with phosphatine dental cement.
The rats were housed individually in cages for 48 h before the dialysis experiments, allowing them to recover from surgery and minimizing the risk of drug interactions with the anaesthetic during the following experiments. During this period the rats had free access to food and water. On the day of experiment the rats were connected to a micro perfusion pump via a swivel and were replaced in the cage where they could move freely within its confinements. The perfusion medium was a Ringer's solution containing in mmol/l: NaCl; 140, CaCl2; 1.2, KCl; 3.0, MgCl2; 1.0 and ascorbic acid; 0.04 according to (Moghaddam and Bunney 1989). The pump was set to a perfusion speed of 2 μl/min and 40 μl samples were collected every 20 min.
30 μl of each sample was injected into the chromatograph. On a 10-port injector (Valco CLOW), with two sample loops mounted in series (2 μl and 20 μl), each brain dialysate sample is loaded in both loops simultaneously. When the valve is switched to inject the main part of the 20 μl sample is introduced into a reverse-phase ion-pairing system for dopamine (DA), norepinephrine (NA), normetanephrine (NM), 3-methoxytyramine(3-MT) and serotonin (5-hydroxytryptamine, 5-HT) determination (large loop), while a small fraction (2 μl, from the small loop) is introduced on a reverse-phase column for the chromatography of the acidic monoamine metabolites 3,4-di-hydroxyphenylacetic acid (DOPAC), homovanillic acid (HVA) and 5-hydroxyindoleacetic acid (5-HIAA). The currents generated by the two EC detectors are converted to digital data and evaluated using Chromelion software (Dionex, Sunnyvale, Calif.) on a PC. The method sample turn over time was 4.5 min and two parallel experiments are normally analysed simultaneously on the system. After the experiment the rats were uncoupled from the perfusion pump and decapitated. Their brains were rapidly taken out and fixed in Neo-fix solution (Kebo-lab, Sweden) for subsequent inspection of probe localisation. The Animal Ethics Committee in Göteborg, Sweden approved the procedures applied in these experiments. • Moghaddam, B. and B. S. Bunney (1989). “Ionic Composition of Microdialysis Perfusing Solution Alters the Pharmacological Responsiveness and Basal Outflow of Striatal Dopamine.” J. Neurochem. 53: 652-654. • Paxinos, G. and C. Watson (1986). […]

MK-801 pre-treated rats = experiment: Locomotor activity in MK-801 pre-treated rats; conditions: ± SEM; for Locomotor activity, MK + example: MK-801 0.7 mg/kg i.p. 90 minutes before test compound 33 μmol/kg, recorded 30-60 minutes after administration
drug-naive rats = experiment: Locomotor activity in drug-naive rats; conditions: recorded for 60 minutes, ± SEM

## CN1CCC(c2cccc(C(F)(F)F)c2F)CC1 (as salt: hydrochloric acid salt)
other
  melting point: 260 to 261 °C

## CCCN1CCC(c2cccc(OC(F)(F)F)c2F)CC1 (as salt: hydrochloric acid salt) [Example 2, 4-[2-fluoro-3-(trifluoromethoxy)phenyl]-1-propyl-piperidine]
other
  melting point: 221 to 222 °C

## CCN1CCC(c2cccc(C(F)(F)F)c2F)CC1 (as salt: hydrochloric acid salt) [Example 3, 4-[2-fluoro-3-(trifluoromethyl)phenyl]-1-ethylpiperidine]
other
  melting point: 235 to 237 °C

## CCCN1CCC(c2cccc(F)c2F)CC1 (as salt: hydrochloric acid salt) [Example 5, 4-(2,3-difluorophenyl)-1-propylpiperidine]
other
  melting point: 237 to 238 °C

## CCCN1CCC(c2cccc(Cl)c2Cl)CC1 (as salt: hydrochloric acid salt) [Example 6, 4-(2,3-dichlorophenyl)-1-propylpiperidine]
other
  melting point: 265 to 267 °C

## CCN1CCC(c2cccc(C#N)c2F)CC1 (as salt: oxalic acid salt)
other
  melting point: 156 to 158 °C

## OC(CCCN1CCN(c2ncc(F)cn2)CC1)c1ccc(F)cc1 (stereo not shown) [BMY14802]
Schizophrenic patients
  outcome of clinical studies in schizophrenic patients: failed

## C[C@@H]1CN(CCCn2c3ccccc3c3ccccc32)C[C@H](C)N1 [BW234U]
Schizophrenic patients
  outcome of clinical studies in schizophrenic patients: failed

## CCN1CCC(c2cccc(C(F)(F)F)c2F)CC1 [Example 3, 4-[2-fluoro-3-(trifluoromethyl)phenyl]-1-ethylpiperidine]
[1]
  levels of dopamine in the cortex: elevate
  levels of norepinephrine in the cortex: elevate
  5-HT in the cortex: 5-HT increase in the cortex

## CCCN1CCC(c2cccc(F)c2F)CC1 [Example 5, 4-(2,3-difluorophenyl)-1-propylpiperidine]
[1]
  levels of dopamine in the cortex: elevate
  levels of norepinephrine in the cortex: elevate
  5-HT in the cortex: 5-HT increase in the cortex

## CCCN1CCC(c2cccc(Cl)c2Cl)CC1 [Example 6, 4-(2,3-dichlorophenyl)-1-propylpiperidine]
[1]
  levels of dopamine in the cortex: elevate
  levels of norepinephrine in the cortex: elevate
  5-HT in the cortex: 5-HT increase in the cortex

## C[C@]12N[C@H](Cc3ccccc31)c1ccccc12 [MK-801, reference compound]
MK-801 pre-treated rats; MK-801 0.7 mg/kg i.p. alone, recorded 30-60 minutes, 0.7 mg/kg
  Locomotor activity, MK-801: 55810 ± 16124 counts/30 min and 30462 ± 6937 counts/30 min

## CCN1CCC(c2cccc(C(F)(F)F)c2F)CC1 [drawing 17]
drug-naive rats; 11 μmol/kg
  Locomotor activity: 10587 ± 1027 counts/60 min
drug-naive rats; 33 μmol/kg
  Locomotor activity: 6439 ± 418 counts/60 min
drug-naive rats; 100 μmol/kg
  Locomotor activity: 4866 ± 941 counts/60 min

## CCCN1CCC(c2cccc(Cl)c2Cl)CC1 [drawing 18]
drug-naive rats; 11 μmol/kg
  Locomotor activity: 7739 ± 1903 counts/60 min
drug-naive rats; 33 μmol/kg
  Locomotor activity: 7053 ± 659 counts/60 min
drug-naive rats; 100 μmol/kg
  Locomotor activity: 4272 ± 1831 counts/60 min

## CCCN1CCC(c2cccc(F)c2F)CC1 [drawing 19]
drug-naive rats; 11 μmol/kg
  Locomotor activity: 8894 ± 1039 counts/60 min
drug-naive rats; 33 μmol/kg
  Locomotor activity: 9958 ± 1835 counts/60 min
drug-naive rats; 100 μmol/kg
  Locomotor activity: 8154 ± 1388 counts/60 min

## CCCN1CCC(c2cccc(Cl)c2Cl)CC1 [drawing 28]
MK-801 pre-treated rats
  Locomotor activity, MK + example: 12943 ± 3226 (P = 0.06) counts/30 min

## CCCN1CCC(c2cccc(F)c2F)CC1 [drawing 29]
MK-801 pre-treated rats
  Locomotor activity, MK + example: 19826 ± 6949 (P = 0.09) counts/30 min

## CN1CCN2c3ncccc3Cc3ccccc3C2C1 (stereo not shown) [mirtazapine, reference compound]
[1]; 10 mg/kg s.c., cortex, FIG. 5
  extracellular dopamine in the cortex: increase
  extracellular norepinephrine in the cortex: increase
